SMILES strings stand for the structures. Converted amounts (≈) assume the structure as drawn.

The subject of the assay is Staphylococcus aureus (Isolate ID ATCC 29213). The assay can be described thus: Bacterial assay: MIC by broth microdilution or agar dilution (CLSI), S. aureus ATCC 29213. It is filed as cell-based. The note with it: Staphylococcus aureus, ATCC29213, read-out: S. aureus MIC (μg/mL) Activity Range, S. aureus (ATCC29213). The gist of the method: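 MICs by CLSI broth microdilution or agar dilution against S. aureus ATCC 29213 and its FtsZ-G196A mutant. Values reported as ranges: A ≤0.25 μg/mL, B >0.25–1.0, C >1.0–16, D >16 μg/mL.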
For orientation: Dilution methods test growth across graded concentrations, often in twofold steps.
Turning to `NC(=O)c1c(F)ccc(O[C@H](CO)c2nc(-c3ccc4c(c3)CCO4)c(Br)o2)c1F` [Compound 253B, (R)-3-(1-(5-bromo-4-(2,3-dihydrobenzofuran-5-yl)oxazol-2-yl)-2-hydroxyethoxy)-2,6-difluorobenzamide], the MIC lay in the range of 1 to 16 µg/mL (≈ 2.08 to 33.2 µM).
The figure for `Cc1ccc(-c2csc(C(CO)Oc3ccc(F)c(C(N)=O)c3F)n2)cn1` (stereo not shown) [Compound 264, 2,6-difluoro-3-(2-hydroxy-1-(4-(6-methylpyridin-3-yl)thiazol-2-yl)ethoxy)benzamide] is above 16 µg/mL.
With `Cc1noc(CCNC(=O)OCC(Oc2ccc(F)c(C(N)=O)c2F)c2nc(-c3ccc(C(F)(F)F)cc3)c(Br)o2)n1` (stereo not shown) [Compound 171, 2-(5-bromo-4-(4-(trifluoromethyl)phenyl)oxazol-2-yl)-2-(3-carbamoyl-2,4-difluorophenoxy)ethyl (2-(3-methyl-1,2,4-oxadiazol-5-yl)ethyl)carbamate] the figure was 0.25 to 1 µg/mL (≈ 0.379 to 1.51 µM).
For the compound `NC(=O)c1c(F)ccc(OC(COC(=O)Nc2nnn[nH]2)c2nc(-c3ccc(C(F)(F)F)cc3)c(Br)o2)c1F` (stereo not shown) [Compound 177, 2-(5-bromo-4-(4-(trifluoromethyl)phenyl)oxazol-2-yl)-2-(3-carbamoyl-2,4-difluorophenoxy)ethyl 1H-tetrazol-5-ylcarbamate], the MIC is above 16 µg/mL.
With `Cc1nc(-c2ccc(-c3nc(C(CO)Oc4ccc(F)c(C(N)=O)c4F)oc3Br)cc2)no1` (stereo not shown) [Compound 83, 3-(1-(5-bromo-4-(4-(5-methyl-1,2,4-oxadiazol-3-yl)phenyl)oxazol-2-yl)-2-hydroxyethoxy)-2,6-difluorobenzamide] the figure was 1 to 16 µg/mL (≈ 1.92 to 30.7 µM).
With `C[C@@H](Oc1cccc(C(N)=O)c1F)c1nc(-c2ccc(C(F)(F)F)cc2)c(Br)o1` [Compound 299] the figure was 1 to 16 µg/mL (≈ 2.11 to 33.8 µM); with `NC(=O)c1c(F)ccc(OC(COC(=O)N2CCNCC2)c2nc(-c3ccc(C(F)(F)F)cc3)c(Br)o2)c1F` (stereo not shown) [Compound 135, 2-(5-bromo-4-(4-(trifluoromethyl)phenyl)oxazol-2-yl)-2-(3-carbamoyl-2,4-difluorophenoxy)ethyl piperazine-1-carboxylate], 1 to 16 µg/mL (≈ 1.61 to 25.8 µM).
With `CNCC(=O)OCC(Oc1ccc(F)c(C(N)=O)c1F)c1nc(-c2ccc(C(F)(F)F)cc2)c(Br)o1` (stereo not shown) [Compound 62, 2-(5-bromo-4-(4-(trifluoromethyl)phenyl)oxazol-2-yl)-2-(3-carbamoyl-2,4-difluorophenoxy)ethyl 2-(methylamino)acetate] the figure was 0.25 to 1 µg/mL (≈ 0.432 to 1.73 µM); with `Cc1cc(CNC(=O)OCC(Oc2ccc(F)c(C(N)=O)c2F)c2nc(-c3ccc(C(F)(F)F)cc3)c(Br)o2)n(C)n1` (stereo not shown) [Compound 212, 2-(5-bromo-4-(4-(trifluoromethyl)phenyl)oxazol-2-yl)-2-(3-carbamoyl-2,4-difluorophenoxy)ethyl ((1,3-dimethyl-1H-pyrazol-5-yl)methyl)carbamate], 0.25 to 1 µg/mL (≈ 0.38 to 1.52 µM).
Take `CS(=O)(=O)OCC(Oc1ccc(F)c(C(N)=O)c1F)c1nc(-c2ccc(C(F)(F)F)cc2)c(Cl)o1` (stereo not shown) [Compound 45, 2-(3-carbamoyl-2,4-difluorophenoxy)-2-(5-chloro-4-(4-(trifluoromethyl)phenyl)oxazol-2-yl)ethyl methanesulfonate]: the MIC lay within 1 to 16 µg/mL.
The figure for `CCOC(=O)C(Oc1ccc(F)c(C(N)=O)c1F)c1csc(-c2ccc(C(F)(F)F)cc2)n1` (stereo not shown) [Compound 125, ethyl 2-(3-carbamoyl-2,4-difluorophenoxy)-2-(2-(4-(trifluoromethyl)phenyl)thiazol-4-yl)acetate] is 0.25 to 1 µg/mL (≈ 0.514 to 2.06 µM); for `CNCCNC(=O)OCC(Oc1ccc(F)c(C(N)=O)c1F)c1nc(-c2ccc(C(F)(F)F)cc2)c(Br)o1` (stereo not shown) [Compound 154, 2-(5-bromo-4-(4-(trifluoromethyl)phenyl)oxazol-2-yl)-2-(3-carbamoyl-2,4-difluorophenoxy)ethyl (2-(methylamino)ethyl)carbamate] it is 1 to 16 µg/mL (≈ 1.65 to 26.3 µM); for `CNc1ccc(-c2nc(C(CO)Oc3ccc(F)c(C(N)=O)c3F)oc2Br)cn1` (stereo not shown) [Compound 224, 3-(1-(5-bromo-4-(6-(methylamino)pyridin-3-yl)oxazol-2-yl)-2-hydroxyethoxy)-2,6-difluorobenzamide] it is above 16 µg/mL.
With `Cc1cnccc1CNC(=O)OCC(Oc1ccc(F)c(C(N)=O)c1F)c1nc(-c2ccc(C(F)(F)F)cc2)c(Br)o1` (stereo not shown) [Compound 216, 2-(5-bromo-4-(4-(trifluoromethyl)phenyl)oxazol-2-yl)-2-(3-carbamoyl-2,4-difluorophenoxy)ethyl ((3-methylpyridin-4-yl)methyl)carbamate] the figure was 0.25 to 1 µg/mL (≈ 0.381 to 1.53 µM).
In the case of `Cc1noc(-c2ccc(-c3nc(C(CO)Oc4ccc(F)c(C(N)=O)c4F)oc3Br)cc2)n1` (stereo not shown) [Compound 85, 3-(1-(5-bromo-4-(4-(3-methyl-1,2,4-oxadiazol-5-yl)phenyl)oxazol-2-yl)-2-hydroxyethoxy)-2,6-difluorobenzamide], the MIC is 1 to 16 µg/mL (≈ 1.92 to 30.7 µM).
With `CC(=O)OCC(Oc1ccc(F)c(C(N)=O)c1F)c1nc(-c2ccc(C(F)(F)F)cn2)c(Br)o1` (stereo not shown) [Compound 78, 2-(5-bromo-4-(5-(trifluoromethyl)pyridin-2-yl)oxazol-2-yl)-2-(3-carbamoyl-2,4-difluorophenoxy)ethyl acetate] the figure was above 16 µg/mL; with `CC(=O)OCC(Oc1ccc(F)c(C(N)=O)c1F)c1nc(-c2ccc(C(F)(F)F)cc2)sc1Br` (stereo not shown) [Compound 130, 2-(5-bromo-2-(4-(trifluoromethyl)phenyl)thiazol-4-yl)-2-(3-carbamoyl-2,4-difluorophenoxy)ethyl acetate], above 16 µg/mL.
The figure for `CCOC(=O)CNC(=O)OCC(Oc1ccc(F)c(C(N)=O)c1F)c1nc(-c2ccc(C(F)(F)F)cc2)c(Br)o1` (stereo not shown) [Compound 140, ethyl 2-(((2-(5-bromo-4-(4-(trifluoromethyl)phenyl)oxazol-2-yl)-2-(3-carbamoyl-2,4-difluorophenoxy)ethoxy)carbonyl)amino)acetate] is 0.25 to 1 µg/mL (≈ 0.393 to 1.57 µM); for `C=CCc1oc(C(CO)Oc2ccc(F)c(C(N)=O)c2F)nc1-c1ccc(C(F)(F)F)cc1` (stereo not shown) [Compound 66, 3-(1-(5-allyl-4-(4-(trifluoromethyl)phenyl)oxazol-2-yl)-2-hydroxyethoxy)-2,6-difluorobenzamide] it is 1 to 16 µg/mL (≈ 2.14 to 34.2 µM); for `Cc1ccc(-c2nc(C(CO)Oc3ccc(F)c(C(N)=O)c3F)oc2Br)s1` (stereo not shown) [Compound 244, 3-(1-(5-bromo-4-(5-methylthiophen-2-yl)oxazol-2-yl)-2-hydroxyethoxy)-2,6-difluorobenzamide] it is 1 to 16 µg/mL (≈ 2.18 to 34.8 µM).
For the compound `NC(=O)c1c(F)ccc(OC(CO)c2nc(-c3ccc(F)c(F)c3)c(Br)o2)c1F` (stereo not shown) [Compound 248, 3-(1-(5-bromo-4-(3,4-difluorophenyl)oxazol-2-yl)-2-hydroxyethoxy)-2,6-difluorobenzamide], the MIC was 1 to 16 µg/mL (≈ 2.1 to 33.7 µM).
With `Cc1nccn1CCNC(=O)OCC(Oc1ccc(F)c(C(N)=O)c1F)c1nc(-c2ccc(C(F)(F)F)cc2)c(Br)o1` (stereo not shown) [Compound 190, 2-(5-bromo-4-(4-(trifluoromethyl)phenyl)oxazol-2-yl)-2-(3-carbamoyl-2,4-difluorophenoxy)ethyl (2-(2-methyl-1H-imidazol-1-yl)ethyl)carbamate] the figure was 1 to 16 µg/mL (≈ 1.52 to 24.3 µM); with `NC(=O)c1c(F)ccc(OC(C(=O)O)c2nc(-c3ccc(Cl)cc3)co2)c1F` (stereo not shown) [Compound 12, 2-(3-carbamoyl-2,4-difluorophenoxy)-2-(4-(4-chlorophenyl)oxazol-2-yl)acetic acid], above 16 µg/mL; with `NC(=O)c1c(F)ccc(OC(COCC(=O)O)c2nc(-c3ccc(C(F)(F)F)cc3)c(Br)o2)c1F` (stereo not shown) [Compound 86, 2-(2-(5-bromo-4-(4-(trifluoromethyl)phenyl)oxazol-2-yl)-2-(3-carbamoyl-2,4-difluorophenoxy)ethoxy)acetic acid], above 16 µg/mL.
With `C=CCc1oc(C(C)Oc2ccc(F)c(C(N)=O)c2F)nc1-c1ccc(OC(F)(F)F)cc1` (stereo not shown) [Compound 17, 3-(1-(5-allyl-4-(4-(trifluoromethoxy)phenyl)oxazol-2-yl)ethoxy)-2,6-difluorobenzamide] the figure was 0.25 to 1 µg/mL (≈ 0.534 to 2.14 µM); with `CN(C)C(=O)CC(Oc1ccc(F)c(C(N)=O)c1F)c1nc(-c2ccc(C(F)(F)F)cc2)c(Br)o1` (stereo not shown) [Compound 88, 3-(1-(5-bromo-4-(4-(trifluoromethyl)phenyl)oxazol-2-yl)-3-(dimethylamino)-3-oxopropoxy)-2,6-difluorobenzamide], 1 to 16 µg/mL (≈ 1.78 to 28.5 µM).
`CC(=O)OCC(Oc1ccc(F)c(C(N)=O)c1F)c1nc(-c2ccc(OC(F)(F)F)cc2)c(Br)o1` (stereo not shown) [Compound 115, 2-(5-bromo-4-(4-(trifluoromethoxy)phenyl)oxazol-2-yl)-2-(3-carbamoyl-2,4-difluorophenoxy)ethyl acetate]: the MIC is below 0.25 µg/mL.
The figure for `Cc1cc(Cl)ccc1-c1nc(C(CO)Oc2ccc(F)c(C(N)=O)c2F)oc1Br` (stereo not shown) [Compound 239, 3-(1-(5-bromo-4-(4-chloro-2-methylphenyl)oxazol-2-yl)-2-hydroxyethoxy)-2,6-difluorobenzamide] is below 0.25 µg/mL.
The figure for `Cc1cc(CNC(=O)OCC(Oc2ccc(F)c(C(N)=O)c2F)c2nc(-c3ccc(C(F)(F)F)cc3)c(Br)o2)nn1C` (stereo not shown) [Compound 213, 2-(5-bromo-4-(4-(trifluoromethyl)phenyl)oxazol-2-yl)-2-(3-carbamoyl-2,4-difluorophenoxy)ethyl ((1,5-dimethyl-1H-pyrazol-3-yl)methyl)carbamate] is 0.25 to 1 µg/mL (≈ 0.38 to 1.52 µM); for `C=CC(Oc1ccc(F)c(C(N)=O)c1F)c1nc(-c2ccc(C(F)(F)F)cc2)c(Br)o1` (stereo not shown) [Compound 102, 3-((1-(5-bromo-4-(4-(trifluoromethyl)phenyl)oxazol-2-yl)allyl)oxy)-2,6-difluorobenzamide] it is 1 to 16 µg/mL (≈ 1.99 to 31.8 µM).
For the compound `CC(=O)OCC(Oc1cccc(C(N)=O)c1F)c1nc(-c2ccc(C(F)(F)F)cc2)c(Br)o1` (stereo not shown) [Compound 158, 2-(5-bromo-4-(4-(trifluoromethyl)phenyl)oxazol-2-yl)-2-(3-carbamoyl-2-fluorophenoxy)ethyl acetate], the MIC is below 0.25 µg/mL.

The record behind these values is patent publication US9511073B2, “Aromatic amides and uses thereof” (TAXIS Pharmaceuticals, Inc., priority 2011, dated 2016).
